From US10730850B2, “Pyridinylmethyl carbamimidoylcarbamate derivatives and their use as AOC3 inhibitors” (Boehringer Ingelheim International GmbH, priority 2016, dated 2020)
Read-outs that look alike come from different tables or passages of the source.

Assays:
[1] = In vivo clearance experiment (biliary clearance); settings: rat, bile collected 0-180 min
Experimental: Bile flow is continuously collected from animal for 4 hours, including the 1 hour post-surgery recovery period. For short biliary excretion study, blood samples are taken at 0, 5 and 180 min and bile samples collection intervals are: 10 min before dosing and 0-180 min. All blood and bile samples are collected from 2 rats and are not pooled. Bile is kept at 4° C. during the collecting intervals and immediately frozen in dry ice after the collecting period is over.
As biliary clearance is expected to be impaired in patients with liver diseases (Clarke J. D. et. al J. Pharm. Exp. Ther. 348:452-458; Ferslew B. C. et al. Clin. Pharm. & Ther. Vol 97(4) XX), a reduced biliary clearance results in a better predictibitlity of the pharmacokinetics and assessment of safety margins in this patient population.

[2] = tested on: hepatocytes; assay: Metabolic stability assay in hepatocyte suspension; format: in vitro ADME; settings: 1 μM test compound
Experimental: The metabolic degradation of the test compound is assayed in a hepatocyte suspension. Hepatocytes (typically cryopreserved) are incubated in an appropriate buffer system (e.g. Dulbecco's modified eagle medium plus 3.5 μg glucagon/500 mL, 2.5 mg insulin/500 mL and 3.75 mg/500 mL hydrocortison) containing 5% species serum. Following a (typically) 30 min preincubation in an incubator (37° C., 10% CO2) 5 μl of test compound solution (80 μM; from 2 mM in DMSO stock solution diluted 1:25 with medium) are added into 395 μl hepatocyte suspension (cell density in the range 0.25-5 Mio cells/mL, typically 1 Mio cells/mL; final concentration of test compound 1 μM, final DMSO concentration 0.05%). The cells are incubated for six hours (incubator, orbital shaker) and samples (25 μl) are taken at 0, 0.5, 1, 2, 4 and 6 hours. Samples are transferred into acetonitrile and pelleted by centrifugation (5 min). The supernatant is transferred to a new 96-deepwell plate, evaporated under nitrogen and resuspended. Decline of parent compound is analyzed by HPLC-MS/MS
CLint is calculated as follows CL_INTRINSIC=Dose/AUC=(C0/CD)/(AUD+clast/k)×1000/60. C0: initial concentration in the incubation [μM], CD: cell density of vital cells [10e6 cells/mL], AUD: area under the data [μM×h], clast: concentration of last data point [μM], k: slope of the regression line for parent decline [h-1].
The calculated in vitro hepatic intrinsic clearance can be scaled up to the intrinsic in vivo hepatic Clearance and used to predict hepatic in vivo blood clearance (CL) by the use of a liver model (well stirred model). CL_INTRINSIC_INVIVO [ml/min/kg]=(CL_INTRINSIC [μL/min/10e6 cells]×hepatocellularity [10e6 cells/g liver]×liver factor [g/kg bodyweight])/1000 CL [ml/min/kg]=CL_INTRINSIC_INVIVO [ml/min/kg]×hepatic blood flow [ml/min/kg]/(CL_INTRINSIC_INVIVO [ml/min/kg]+hepatic blood flow [ml/min/kg])

[3] = biological target: AOC3 (Homo sapiens (Human), UniProt Q16853); assay: MAO-Glo AOC3 assay (recombinant CHO cells overexpressing AOC3); format: biochemical
Chain of AOC3 (Q16853 whole entry): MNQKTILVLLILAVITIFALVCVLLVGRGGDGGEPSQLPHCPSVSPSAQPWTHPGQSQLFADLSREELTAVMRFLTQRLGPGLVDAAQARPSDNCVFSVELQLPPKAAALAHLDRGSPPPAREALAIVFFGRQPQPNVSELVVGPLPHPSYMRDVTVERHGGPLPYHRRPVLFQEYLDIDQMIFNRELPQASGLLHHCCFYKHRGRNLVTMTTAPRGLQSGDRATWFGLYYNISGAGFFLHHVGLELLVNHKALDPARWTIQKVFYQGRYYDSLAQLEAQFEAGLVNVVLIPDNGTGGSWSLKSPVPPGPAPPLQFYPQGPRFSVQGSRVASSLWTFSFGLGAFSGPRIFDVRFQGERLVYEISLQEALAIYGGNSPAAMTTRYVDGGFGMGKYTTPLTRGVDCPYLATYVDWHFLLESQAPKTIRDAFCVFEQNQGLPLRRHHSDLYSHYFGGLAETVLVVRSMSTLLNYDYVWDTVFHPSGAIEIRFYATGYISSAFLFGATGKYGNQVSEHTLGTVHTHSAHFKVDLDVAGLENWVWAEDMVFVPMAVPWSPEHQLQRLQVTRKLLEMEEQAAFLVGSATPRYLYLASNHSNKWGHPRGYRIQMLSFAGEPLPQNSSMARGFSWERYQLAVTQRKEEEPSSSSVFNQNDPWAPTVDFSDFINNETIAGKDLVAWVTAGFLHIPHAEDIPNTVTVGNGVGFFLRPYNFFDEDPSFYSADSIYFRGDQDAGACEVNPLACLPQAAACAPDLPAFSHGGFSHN
Source text: The MAO-Glo™ Assay (commercial available from PROMEGA, # V1402) provides a sensitive method for the measurement of monoamine oxidase (MAO) activity (Valley, M. P. et al., 2006, Anal. Biochem. 359: 238-246) from a variety of tissues, biofluids or recombinant expressed or purified enzymes. As substrate a derivate of the beetle luciferin ((4S)-4,5-dihydro-2-(6-hydroxybenzothiazolyl)-4-thiazole-carboxylic acid) is used, which is oxidized at a primary amine moiety. After a spontaneous elimination and a catalyzed esterase reaction, the turnover of the luciferine by the luciferase is recorded as a signal of AOC3 activity.
An aliquot of 3 μL of the compound dilution is added to a 384 well plate (Optiplate, PS, flat bottom, white, PERKIN ELMER, #6007290) with a final DMSO concentration of 6.6%. Recombinant CHO cells, overexpressing the human (1500 cells/well), mouse (1000 cells/well) or rat (500 cells/well) AOC3 enzyme are diluted in reaction buffer and added in a volume of 15 μL to the wells. After incubation for 20 minutes at 37° C., 2 μL of MAO substrate (dissolved in DMSO at 16 mM, adjusted to assay concentration in reaction buffer to a final assay concentration of 20 μM) is added and further incubated for 60 minutes at 37° C. The turnover of the substrate is determined by the addition of 20 μL of the detection-mix which was generated by the addition of reconstitution buffer with esterase (PROMEGA, # V1402) to the luciferine detection reagent (PROMEGA, # V1402). After an incubation period of 20 minutes, the luminescent signal is measured with Envision 2104 Multilabel Reader (PERKIN ELMER).
In the following table the activity expressed as IC50 (nM) of compounds according to the invention is presented wherein the IC50 values are determined in the MAO-Glo™ AOC3 assay as described hereinbefore. The term “Example” refers to the example numbers according to the following experimental section.

[4] = comparative compounds of EP 2 695 881
[5] = Table 3, compounds of the present invention
[6] = Table 2, compounds of the present invention, read-out: IC50
[7] = compounds of the present invention

Row | Cl (biliary clearance) [1, 4] [%] | QH [2, 5] [%] | QH ([2]; Table 4) [%] | IC50 ([3]; Table 1, read-out: AOC3 IC50) [nM] | IC50 [3, 6] [nM] | Cl (biliary clearance) [1, 7] [%] | SMILES
1 | 22.4 |  |  |  |  |  | CC(=O)N1CCC(COc2ncc(-c3cccc(COC(=O)NC(=N)N)c3F)cn2)CC1 [11 (221), reference compound]
2 | 10.3 |  |  |  |  |  | CC(=O)N1CCC(C2CN(c3cccc(COC(=O)NC(=N)N)c3F)C2)CC1 [559 (293), reference compound]
3 |  | 3.7 | 4 | 4 | 4.1 | 1.2 | COc1ncc(N2CCN(c3nccc(COC(=O)NC(=N)N)c3F)CC2)cn1 [Example 1.072]
4 |  | 23 | 10 | 3 | 2.8 | 2.2 | N=C(N)NC(=O)OCc1ccnc(N2CCN(c3ccc(C(N)=O)cc3)CC2)c1F [Example 1.084]
